The record followed here is patent US20070053841A1, “USE OF 1,1,1,2-TETRAFLUOROETHANE FOR MEASURING LUNG FUNCTION, ESPECIALLY FOR DETERMINING THE FUNCTIONAL RESIDUAL CAPACITY (FRC) OF THE LUNGS” (Drager Medical AG & Co. KG, priority 2005, published 2007).

The series can be described thus: blood-gas partition coefficient L (solubility of the gas in the blood). The class given is physicochemical. The note with it: gas 1 = R 134a, gas 2 = R 227; equilibrium between gas dissolved in blood and gas phase. As to the method:
The solubility of gases in the blood can be described by the blood-gas partition coefficient L, which describes the ratio of the volume percentages between gas dissolved in the blood and gas present in the gas phase. The prerequisite for this is the presence of an equilibrium with identical partial pressures of the gas in the phase in which it is dissolved in the blood and in the gas phase. Lowest possible solubility of the tracer gas in the blood is desirable for the lung function diagnostic tests and especially for the determination of the FRC, because what we wish to ultimately determine is the lung volume rather than the quantity of blood in the body. By using at least two gases with different solubilities in blood, the FRC measurement can be corrected with respect to the solubility in blood. The subscripts 1 and 2 below designate the two gases, which may stand, e.g., for R 134a and R 227. It can be assumed below, without restricting the generality, that L1>L2, so that the FRC measured with gas 1 (for example, R 134a) will be greater than that determined with gas 2 (for example, R 227). The blood volume can be determined from the difference of the FRC values: [formula] […] In case of R 134a and R 227, the coefficient L1/L2 is approx. 4, so that the measured difference in FRC is divided by 3.

On to `FCC(F)(F)F` [R 134a, 1,1,1,2-tetrafluoroethane], for which the “coefficient L1/L2 (ratio of blood-gas partition coefficients)” value was “approx. 4”.
